For assay [1], the target named is T1, ATP-dependent translocase ABCB1 (Homo sapiens, UniProt P08183). The experiment in a line: TP_TRANSPORTER: inhibition of Rhodamine 123 transport in 3T3-G185 cells. The class given is functional, cell-based.
Assay [2] deals with T1, ATP-dependent translocase ABCB1. In words: TP_TRANSPORTER: inhibition of Daunorubicin transport in 3T3-G185 cells. The format is functional, cell-based.

This passage reports IC50 results from ChEMBL document CHEMBL2073743, “HMG-CoA reductase inhibitors (statins) characterized as direct inhibitors of P-glycoprotein” (Pharm Res, 2001).

T1 sequence (P08183 whole entry): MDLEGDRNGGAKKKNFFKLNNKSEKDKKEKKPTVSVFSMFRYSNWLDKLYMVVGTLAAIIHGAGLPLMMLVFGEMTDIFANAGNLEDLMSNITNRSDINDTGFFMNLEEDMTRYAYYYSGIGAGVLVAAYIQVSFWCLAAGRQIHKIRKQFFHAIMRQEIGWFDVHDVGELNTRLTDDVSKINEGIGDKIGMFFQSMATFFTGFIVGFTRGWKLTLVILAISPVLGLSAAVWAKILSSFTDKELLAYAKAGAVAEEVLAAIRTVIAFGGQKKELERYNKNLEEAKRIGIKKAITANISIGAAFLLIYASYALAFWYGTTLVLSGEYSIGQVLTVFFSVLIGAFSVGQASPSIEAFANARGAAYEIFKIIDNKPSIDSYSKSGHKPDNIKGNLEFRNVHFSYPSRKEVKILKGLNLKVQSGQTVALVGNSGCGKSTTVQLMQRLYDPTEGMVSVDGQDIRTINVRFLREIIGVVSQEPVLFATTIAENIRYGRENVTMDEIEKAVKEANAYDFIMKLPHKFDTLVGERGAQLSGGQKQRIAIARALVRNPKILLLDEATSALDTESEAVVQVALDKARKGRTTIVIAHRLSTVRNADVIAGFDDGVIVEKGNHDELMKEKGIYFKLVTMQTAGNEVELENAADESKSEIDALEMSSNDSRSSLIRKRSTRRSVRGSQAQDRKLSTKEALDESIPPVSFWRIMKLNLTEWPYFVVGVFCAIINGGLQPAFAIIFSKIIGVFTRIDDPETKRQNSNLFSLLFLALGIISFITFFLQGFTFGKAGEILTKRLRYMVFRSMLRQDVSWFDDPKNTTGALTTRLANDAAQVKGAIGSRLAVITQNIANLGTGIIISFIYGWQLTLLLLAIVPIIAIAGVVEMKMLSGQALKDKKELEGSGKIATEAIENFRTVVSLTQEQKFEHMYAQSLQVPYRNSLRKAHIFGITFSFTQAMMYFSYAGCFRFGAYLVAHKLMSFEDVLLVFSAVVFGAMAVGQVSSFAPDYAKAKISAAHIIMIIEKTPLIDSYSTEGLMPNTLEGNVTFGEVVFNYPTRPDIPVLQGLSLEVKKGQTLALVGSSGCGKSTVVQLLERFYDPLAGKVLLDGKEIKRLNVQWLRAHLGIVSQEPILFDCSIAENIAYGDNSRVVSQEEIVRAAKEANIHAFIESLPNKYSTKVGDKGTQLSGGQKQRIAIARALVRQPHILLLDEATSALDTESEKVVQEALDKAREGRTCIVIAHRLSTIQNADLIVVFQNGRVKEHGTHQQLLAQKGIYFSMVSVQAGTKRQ

For orientation: IC50 means the concentration needed to halve the response being measured. A low value points to higher potency. For `CC(C)c1c(C(=O)Nc2ccccc2)c(-c2ccccc2)c(-c2ccc(F)cc2)n1CC[C@@H](O)C[C@@H](O)CC(=O)O` [ATORVASTATIN], the IC50 in assay [1] stood at 307 µM; in assay [2], 271 µM.
